From US4447611A, “Benzo-fused and heterocyclic fused imidazole anti-ulcer agents” (American Home Products Corporation, priority 1982, dated 1984)

What was measured:
H2 histamine receptors = target: T1, H2 histamine receptors (Cavia porcellus, UniProt P47747); test: guinea pig heart atrium test (histamine-induced positive chronotropic response in spontaneously beating right atrium); format: cell-based; conditions: 32° C., pH 7.4, 30 minutes after addition of compound, vs histamine dose-response
T1 construct: from tissue; host or cells: guinea pig right atrium (isolated, spontaneously beating)
T1 sequence (P47747 whole entry): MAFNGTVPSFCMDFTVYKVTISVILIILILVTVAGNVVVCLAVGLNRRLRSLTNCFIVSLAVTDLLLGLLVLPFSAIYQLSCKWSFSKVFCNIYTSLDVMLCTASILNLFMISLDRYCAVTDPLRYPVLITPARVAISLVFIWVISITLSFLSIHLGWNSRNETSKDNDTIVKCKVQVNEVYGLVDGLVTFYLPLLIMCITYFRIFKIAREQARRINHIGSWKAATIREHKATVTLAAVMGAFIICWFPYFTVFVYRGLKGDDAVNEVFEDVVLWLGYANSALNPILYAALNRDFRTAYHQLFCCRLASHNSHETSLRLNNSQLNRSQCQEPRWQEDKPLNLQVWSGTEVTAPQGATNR
Method: The guinea pig heart atrium test is carried out as follows:
The tissue is allowed to stabilize over 1 hour. Individual contractions are recorded with a force-displacement transducer through a strain gauge coupler. A control dose-response curve to histamine in the above described tissue bath is obtained after which the tissue is washed 3 times and allowed to re-equilibrate to basal rate. The test compound is added to the tissue bath at the desired final concentration. Thirty minutes after addition of the compound, a fresh histamine dose response curve is again obtained. Then the response to histamine in the presence of antagonist is compared to the histamine control response. This procedure is repeated, using fresh tissues, for each concentration of antagonist tested.

rat gastric secretion = test: gastric secretion in the pylorus-ligated rat (modified Shay procedure); format: in vivo; conditions: 32 mg/kg, interduodenally (i.d.), four hours after ligation, male Charles River rats
Method: The procedures for the results of these tests are presented at the end of the following examples, which will serve to illustrate the present invention.
The procedure for testing gastric secretion in the rat, a modification of the procedure of Shay et al., Gastroenterology, 26, 906-13 (1954) is carried out as follows:
Male Charles River rats weighing 200-300 grams are deprived of food but not water for 24 hours prior to use. Water is, however, withheld during the experiment. The rats are weighed, anesthetized, and the pylorus ligated according to the method of Shay et al. Treatment or vehicle control is then administered interduodenally (i.d.). Rats are housed 2/cage and sacrificed with CO2 four hours after ligation. The stomachs are removed, rinsed, and contents emptied into a graduated centrifuge tube. The tubes are centrifuged for 20 minutes at 2,000 RPM and the volume of gastric juice recorded. Any samples obviously contamined by feces, food or hemolysis are eliminated. An aliquot of each is frozen for later analysis of Na^+, K^+ and Cl^- concentration. The pH is measured and 1 ml. of gastric juice is titrated with 0.1 N NaOH to a pH of 7.0-7.4 Titratable acid output is calculated in microequivalents and the percent inhibition of acid output is calculated as follows: [formula]

[1] = cited from earlier work

pA2 Value (apparent dissociation constant of the H2 antagonist) (H2 histamine receptors) | SMILES | % Inhibition (of acid output) (rat gastric secretion) [%] | confusional states (in words) ([1]; elderly patients) | anti-androgenic activity (in words) ([1]; patients) | duration of action (in words) ([1]; patients)
7.1 | c1cc(CN2CCCCC2)cc(OCCCNc2nc3ccccc3[nH]2)c1 [A, 2-[3-[3-[(1-piperidinylmethyl)]phenoxy]propylamine]benzimidazole] | 65 | – | – | –
– | CN/C(=N/CCSCc1nc[nH]c1C)NC#N [Cimetidine] | – | a tendency to cause confusional states in elderly patients | anti-androgenic activity | short duration of action
